Square brackets hold non-standard residues; d marks the D form. Peptide text beside a SMILES is read from it. * marks the point of attachment. Sta = CC(C)C[C@H](N)[C@@H](O)CC(=O)O; Boc = CC(C)(C)OC(=O)*

In the assay the target is Rhizopuspepsin (Rhizopus chinensis). Briefly: Compound was tested for inhibition of Rhizopus chinensis pepsin.
Take `COC(=O)[C@H](CC(C)C)NC(=O)[C@@H](NC(=O)[C@H](Cc1ccccc1)NC(=O)C[C@H](O)[C@H](CC(C)C)NC(=O)[C@H](C)NC(=O)[C@H](CC(C)C)NC(=O)[C@H](Cc1ccccc1)NC(=O)OC(C)(C)C)C(C)C` [2-{2-[2-(4-{2-[2-(2-tert-Butoxycarbonylamino-3-phenyl-propionylamino)-4-methyl-pentanoylamino]-propionylamino}-3-hydroxy-6-methyl-heptanoylamino)-3-phenyl-propionylamino]-3-methyl-butyrylamino}-4-methyl-pentanoic acid methyl ester] (Boc-FLA[Sta]FVL-OMe): the Ki is 9.2 nM.

As for `COC(=O)[C@H](CC(C)C)NC(=O)[C@@H](NC(=O)[C@H](Cc1ccccc1)NC(=O)C[C@H](O)[C@H](CC(C)C)NC(=O)[C@H](C)NC(=O)[C@H](Cc1ccccc1)NC(=O)[C@H](Cc1ccccc1)NC(=O)OC(C)(C)C)C(C)C` [2-{2-[2-(4-{2-[2-(2-tert-Butoxycarbonylamino-3-phenyl-propionylamino)-3-phenyl-propionylamino]-propionylamino}-3-hydroxy-6-methyl-heptanoylamino)-3-phenyl-propionylamino]-3-methyl-butyrylamino}-4-methyl-pentanoic acid methyl ester] (Boc-FFA[Sta]FVL-OMe), the Ki was determined as 14 nM. Against the preceding molecule, the Ki is about 1.5-fold higher.

Consider `COC(=O)[C@H](CC(C)C)NC(=O)[C@@H](NC(=O)[C@H](Cc1ccccc1)NC(=O)C[C@H](O)[C@H](CC(C)C)NC(=O)[C@H](C)NC(=O)[C@H](C)NC(=O)[C@H](Cc1ccccc1)NC(=O)OC(C)(C)C)C(C)C` [2-{2-[2-(4-{2-[2-(2-tert-Butoxycarbonylamino-3-phenyl-propionylamino)-propionylamino]-propionylamino}-3-hydroxy-6-methyl-heptanoylamino)-3-phenyl-propionylamino]-3-methyl-butyrylamino}-4-methyl-pentanoic acid methyl ester] (Boc-FAA[Sta]FVL-OMe), for which affinity was put at a Ki of 51 nM. Compared with the last molecule, the Ki is about 3.6-fold higher.

`COC(=O)[C@H](CC(C)C)NC(=O)[C@@H](NC(=O)C[C@H](O)[C@H](CC(C)C)NC(=O)[C@H](C)NC(=O)[C@H](C)NC(=O)[C@H](Cc1ccccc1)NC(=O)OC(C)(C)C)C(C)C` [2-[2-(4-{2-[2-(2-tert-Butoxycarbonylamino-3-phenyl-propionylamino)-propionylamino]-propionylamino}-3-hydroxy-6-methyl-heptanoylamino)-3-methyl-butyrylamino]-4-methyl-pentanoic acid methyl ester] (Boc-FAA[Sta]VL-OMe): the affinity corresponds to a Ki of 78 nM.
